Data: publication PMC4426631, “Insect antimicrobial peptides show potentiating functional interactions against Gram-negative bacteria” (Proceedings of the Royal Society B: Biological Sciences, 2015)
Cf = 5(6)-carboxyfluorescein

System: E. coli strain JM83
Assay: E. coli permeabilization assay (β-galactosidase leakage)
Assay type: cell-based
Experimental: The membrane permeabilizing activities of AMPs were determined using E. coli strain JM83 on the basis of β-galactosidase activity leaking from the cytoplasm, as described in detail in the electronic supplementary material. Living bacteria incubated with medium only were used as a negative control and bacteria killed by treatment with 5 µM synthetic cecropin B (Sigma-Aldrich) were used as a positive control (100% permeabilization). Before setting the perforation level of the positive control to 100%, the perforation value obtained for the negative control was subtracted from all other measurements. All assays were carried out three times, each time in triplicate. The results were presented as means ± s.d. (n = 3) based on statistical analysis using Student's t-test. […]
i) Peptide synthesis and modification.
The peptide sequences shown in Tabl es S1 an d S4 were selected according to their repo rted structural and functional properties, synthesized and purified to >95%. […]
The membran e p ermeabilizing activities of AMPs were determined using E. coli strain JM83 on the basis of β-gal actosidase activit y leakin g from the c ytoplasm. […] The samples were incubated at 37°C for 90 min and the absorbance was measured at 405 nm , which is proportional to the amount of released β-gal act osidase. […]

abaecin: proline-rich peptide abaecin, species version not specified at the place (Cf-FVPYNPPRPGQSKPFPSFPGHGPFNPKIQWPYPLPNPGH-NH2)
perforation of the bacterial envelope, abaecin alone (20 µM abaecin, pH 6.8 phosphate buffer, 45 min, 37°C, 405 nm, relative to 5 µM cecropin B = 100%, n = 3): approximately 4.8%
increase in membrane permeability, in words (peptide alone): only marginally increased
